The NIST ThermoML archive (doi:10.1016/j.jct.2018.12.031)
± gives the expanded uncertainty stated by the source.

Test: xn = mol fraction of the nth substance listed
Conditions: 100 kPa, Liquid; for speed of sound: Frequency=3 MHz, Linear variable-path acoustic interferometer; for mass density: Pycnometric method

C=C(C)C(=O)OCC [ethyl 2-methylpropenoate] + N#Cc1ccccc1
Conditions | mass density, 293.15 K [kg/m3] | mass density, 298.15 K [kg/m3] | mass density, 303.15 K [kg/m3] | speed of sound, 293.15 K [m/s] | speed of sound, 298.15 K [m/s] | speed of sound, 303.15 K [m/s]
x2 = 0 | 912.3 ± 1 | 907.18 ± 1 | 902.06 ± 1 | 1196.8 ± 1.6 | 1176.9 ± 1.6 | 1157.6 ± 1.6
x2 = 0.0711 | 918.32 ± 1 | 913.3 ± 1 | 908.28 ± 1 | 1212.4 ± 1.6 | 1193 ± 1.6 | 1174.2 ± 1.6
x2 = 0.1419 | 924.37 ± 1 | 919.45 ± 1 | 914.53 ± 1 | 1228 ± 1.7 | 1208.9 ± 1.6 | 1190.4 ± 1.6
x2 = 0.2152 | 930.7 ± 1 | 925.88 ± 1 | 921.06 ± 1 | 1244.1 ± 1.7 | 1225 ± 1.6 | 1206.4 ± 1.6
x2 = 0.2872 | 936.99 ± 1 | 932.27 ± 1 | 927.55 ± 1 | 1259.8 ± 1.7 | 1240.7 ± 1.6 | 1222.1 ± 1.6
x2 = 0.3568 | 943.14 ± 1 | 938.52 ± 1 | 933.89 ± 1 | 1274.9 ± 1.7 | 1255.7 ± 1.7 | 1237.4 ± 1.6
x2 = 0.4307 | 949.76 ± 1 | 945.23 ± 1 | 940.7 ± 1 | 1290.9 ± 1.7 | 1271.6 ± 1.7 | 1253.4 ± 1.6
x2 = 0.4991 | 955.96 ± 1 | 951.53 ± 1 | 947.1 ± 1 | 1306 ± 1.7 | 1286.8 ± 1.7 | 1268.4 ± 1.7
x2 = 0.5752 | 962.96 ± 1 | 958.64 ± 1 | 954.32 ± 1 | 1323.3 ± 1.7 | 1304.2 ± 1.7 | 1285.8 ± 1.7
x2 = 0.6431 | 969.29 ± 1 | 965.07 ± 1 | 960.85 ± 1 | 1339.2 ± 1.7 | 1320 ± 1.7 | 1301.7 ± 1.7
x2 = 0.7177 | 976.35 ± 1 | 972.24 ± 1 | 968.13 ± 1 | 1357.7 ± 1.7 | 1338.5 ± 1.7 | 1320.4 ± 1.7
x2 = 0.7773 | 982.06 ± 1 | 978.04 ± 1 | 974.02 ± 1 | 1373 ± 1.7 | 1354 ± 1.7 | 1336 ± 1.7
x2 = 0.8576 | 989.86 ± 1 | 985.97 ± 1 | 982.07 ± 1 | 1394.7 ± 1.7 | 1375.9 ± 1.7 | 1358.2 ± 1.7
x2 = 0.9289 | 996.89 ± 1 | 993.11 ± 1 | 989.33 ± 1 | 1414.8 ± 1.7 | 1396.3 ± 1.7 | 1379.1 ± 1.7
